# Values quoted from earlier work in patent publication US20060281813A1, “Methods of treating hyperproliferative cell disorders” (priority 2003, published 2006).
# What was measured:
# [1] = molecular target: T1, monomeric mouse RAR b (Mus musculus, UniProt P22605); settings: read-out: IC50, ability to displace all-trans RA; cited from earlier work
# T1 sequence (P22605 1-482): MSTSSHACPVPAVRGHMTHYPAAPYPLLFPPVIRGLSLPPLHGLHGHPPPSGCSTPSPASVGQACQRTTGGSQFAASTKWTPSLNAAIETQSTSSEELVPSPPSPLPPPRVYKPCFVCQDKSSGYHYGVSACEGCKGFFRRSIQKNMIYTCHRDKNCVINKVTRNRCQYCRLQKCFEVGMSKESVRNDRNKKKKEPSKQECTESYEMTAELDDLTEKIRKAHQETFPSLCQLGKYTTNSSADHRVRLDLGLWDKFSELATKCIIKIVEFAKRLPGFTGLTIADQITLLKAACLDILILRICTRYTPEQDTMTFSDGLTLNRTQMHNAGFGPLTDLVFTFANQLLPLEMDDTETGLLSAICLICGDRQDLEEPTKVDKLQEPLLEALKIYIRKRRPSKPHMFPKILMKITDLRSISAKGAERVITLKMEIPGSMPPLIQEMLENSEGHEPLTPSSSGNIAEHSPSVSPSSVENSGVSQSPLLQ
# [2] = molecular target: T2, human RARα (Homo sapiens, UniProt P10276); settings: cited from earlier work
# T2 sequence (P10276 1-462): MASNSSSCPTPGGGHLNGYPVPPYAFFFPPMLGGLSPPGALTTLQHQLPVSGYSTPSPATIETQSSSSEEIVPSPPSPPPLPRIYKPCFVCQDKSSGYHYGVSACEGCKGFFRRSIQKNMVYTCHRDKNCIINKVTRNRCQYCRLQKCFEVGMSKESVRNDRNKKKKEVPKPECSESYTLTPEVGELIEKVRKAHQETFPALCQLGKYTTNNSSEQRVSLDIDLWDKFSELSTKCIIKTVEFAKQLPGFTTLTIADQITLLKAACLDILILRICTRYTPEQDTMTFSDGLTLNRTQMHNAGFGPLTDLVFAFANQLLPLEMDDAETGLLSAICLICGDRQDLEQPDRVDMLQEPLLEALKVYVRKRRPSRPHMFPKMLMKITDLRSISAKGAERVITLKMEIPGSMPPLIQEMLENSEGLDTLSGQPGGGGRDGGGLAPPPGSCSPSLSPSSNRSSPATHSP
structure (smiles),measurement,setting,value
CC(C=CC1=C(C)C(=O)CCC1(C)C)=CC=CC(C)=CCO [4-oxo-retinol],IC50,[1],0.42 µM
same,RARα-mediated transactivation,[2],potently induced transactivation
